For one compound, IC50 results are on record in patent US7772265B2, “2-oxadiazolechromone derivatives” (Merck Patent GmbH, priority 2002, dated 2010).

The IC50 is the midpoint of a concentration-inhibition curve.

The target of test [1] is PKB (Homo sapiens, UniProt P31749). Briefly: PKB inhibition (comparative measurement). The class given is biochemical. The following applies: read-out: IC50 PKB inhibitor.
The target of test [2] is Tie2 (Homo sapiens, UniProt Q02763). Briefly: Tie2 inhibition. In kind it is biochemical. The following applies: read-out: IC50 Tie2 inhibitor.

SMILES strings stand for the structures.

Sequence of Tie2 (Q02763 23-1124, species assumed): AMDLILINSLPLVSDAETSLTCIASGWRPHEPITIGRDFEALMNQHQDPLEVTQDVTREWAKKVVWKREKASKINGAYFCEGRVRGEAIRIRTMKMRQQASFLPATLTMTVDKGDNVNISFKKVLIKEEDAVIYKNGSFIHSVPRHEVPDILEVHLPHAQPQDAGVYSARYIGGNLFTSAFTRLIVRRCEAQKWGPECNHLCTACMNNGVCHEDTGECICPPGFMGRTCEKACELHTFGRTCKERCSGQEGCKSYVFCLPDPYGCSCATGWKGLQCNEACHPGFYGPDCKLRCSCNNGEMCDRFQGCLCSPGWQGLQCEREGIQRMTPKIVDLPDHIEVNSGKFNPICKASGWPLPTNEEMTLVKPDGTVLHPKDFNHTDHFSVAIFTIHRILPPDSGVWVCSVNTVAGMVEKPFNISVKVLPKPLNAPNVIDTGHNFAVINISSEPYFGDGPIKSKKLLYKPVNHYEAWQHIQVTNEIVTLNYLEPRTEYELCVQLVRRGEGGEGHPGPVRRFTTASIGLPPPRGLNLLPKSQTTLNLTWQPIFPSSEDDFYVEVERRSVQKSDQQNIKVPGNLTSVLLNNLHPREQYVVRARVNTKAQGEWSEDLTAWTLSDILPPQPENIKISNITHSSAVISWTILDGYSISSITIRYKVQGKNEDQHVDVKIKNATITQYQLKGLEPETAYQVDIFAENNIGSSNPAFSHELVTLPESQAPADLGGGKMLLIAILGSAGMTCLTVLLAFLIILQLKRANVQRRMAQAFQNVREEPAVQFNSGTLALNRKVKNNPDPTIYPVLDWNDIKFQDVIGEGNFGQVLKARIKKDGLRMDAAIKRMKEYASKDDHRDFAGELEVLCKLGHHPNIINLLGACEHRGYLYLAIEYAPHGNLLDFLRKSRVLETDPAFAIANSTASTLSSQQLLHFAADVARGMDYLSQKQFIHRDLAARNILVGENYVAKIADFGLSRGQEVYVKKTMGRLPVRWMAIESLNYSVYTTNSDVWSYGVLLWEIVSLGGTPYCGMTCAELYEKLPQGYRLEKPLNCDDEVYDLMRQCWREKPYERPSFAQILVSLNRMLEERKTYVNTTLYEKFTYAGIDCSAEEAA
Sequence of PKB (P31749 whole entry, species assumed): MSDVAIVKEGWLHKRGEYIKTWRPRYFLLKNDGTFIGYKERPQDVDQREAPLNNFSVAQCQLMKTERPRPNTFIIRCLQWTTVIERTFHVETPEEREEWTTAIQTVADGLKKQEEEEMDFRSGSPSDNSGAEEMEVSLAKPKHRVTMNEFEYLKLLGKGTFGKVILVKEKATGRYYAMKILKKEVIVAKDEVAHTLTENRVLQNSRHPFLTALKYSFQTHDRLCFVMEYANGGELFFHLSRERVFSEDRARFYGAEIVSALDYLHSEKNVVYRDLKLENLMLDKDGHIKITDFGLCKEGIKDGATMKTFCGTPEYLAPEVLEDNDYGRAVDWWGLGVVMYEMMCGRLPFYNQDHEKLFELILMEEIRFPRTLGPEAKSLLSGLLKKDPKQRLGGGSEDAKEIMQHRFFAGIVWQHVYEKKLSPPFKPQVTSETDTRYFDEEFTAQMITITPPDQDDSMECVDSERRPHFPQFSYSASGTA

In the case of `CC(C)(C)c1ccc(-c2noc(-c3cc(=O)c4cc(O)ccc4o3)n2)cc1` [6-hydroxy-2-[3-(4-tert-butylphenyl)-1,2,4-oxadiazol-5-yl]-chromone], the half-maximal inhibitory concentration (IC50) in test [1] was > 30 µM; in test [2], ≥ 10 µM.
